Measurements: publication PMC10451648 (Antibiotics, 2023)
≈ marks a conversion by molar mass, not a printed value. Entries after “also recorded” stand apart in the source; their conditions may differ. Square brackets hold non-standard residues; d marks the D form. Peptide text beside a SMILES is read from it. Aib = CC(C)(N)C(=O)O

What was measured:
S. aureus NBRC 13276 = format: cell-based, Staphylococcus aureus; settings: NBRC 13276, 18 h
Description: (§1) The antimicrobial activities of peptides 1–8 against Gram-positive Staphylococcus aureus, Gram-negative Escherichia coli DH5α, Pseudomonas aeruginosa, and multidrug-resistant P. aeruginosa (MDRP) were evaluated. The minimum inhibitory concentration (MIC) against these bacteria was measured as an indicator of antimicrobial activity, and the results are discussed in Table 2.
(§2) One type of Gram-positive bacteria, S. aureus NBRC 13276, and three Gram-negative bacteria, E. coli DH5α, P. aeruginosa NBRC 13275, and MDRP, were selected for the evaluation of the antimicrobial activity of the synthesized peptides. The selected bacterial strains were obtained from the Biological Resource Center, NITE (NBRC; Tokyo, Japan), and Escherichia coli DH5α cells were purchased from BioDynamics Laboratory, Inc. (Tokyo, Japan). The antimicrobial activities of the tested peptides 1–8 against each stain were examined by the standard broth microdilution method, as previously reported. Briefly, the bacteria were seeded and grown overnight at 37 °C on Agar media for other organisms i (Agar medium) and then collected with the media for other organisms ii (liquid medium), according to the 17th revision of Japanese Pharmacopoeia. Next, 10 μL of the peptide solution per well was added to each well of a sterile 96-well plate, and 90 μL per well of inoculation was mixed with 10^4 CFUs (colony forming units) per mL and added to each well, and the plate was incubated for 18 h at 35 °C.

Escherichia coli DH5α = format: cell-based; settings: broth microdilution, 10^4 CFUs per mL, 18 h at 35 °C; MIC = lowest concentration that completely inhibited bacterial growth; final conc. 0.39 to 100
Description: as §1, §2

human red blood cells = assay: Hemolysis activity against red blood cells; settings: human RBCs in 172 mM Tris-HCl pH 7.6, 30 min at 37 °C, absorbance 535 nm; DMSO = 0%, M-Lycotoxin = 100%; final peptide conc. 100 to 0.39
Description: AMPs primarily target microbial membranes, leading to their antimicrobial activity through membrane lysis. However, it is important to consider their potential effects on human cell membranes, as this could raise concerns regarding cytotoxicity. […] Hemolytic activity was assessed by measuring the absorption at 535 nm, which indicates the leakage of red blood cell cytoplasmic contents and hemoglobin.
Human red blood cells (RBCs) were supplied by the Japanese Red Cross Society (Tokyo, Japan). The hemolytic assay of the synthesized peptides was performed as previously reported. Briefly, 5.0 mL of the total erythrocytes were washed three times with 172 mM Tris-HCl buffer (pH = 7.6, wash buffer:WB) and 1.0 mL of precipitated erythrocytes was diluted with 9.0 mL of WB. Then, 0.5 mL of the suspension was diluted in WB, and 50 µL of RBC solution was incubated with 50 µL of each peptide for 30 min at 37 °C (final peptide conc. from 100 to 0.39 μM). The suspensions were then centrifuged at 400 rpm for 5 min. The absorbance of the supernatant was measured at a wavelength of 535 nm. M-Lycotoxin [22], which is a typical hemolytic toxic peptide derived from Wolf spider, was used as a positive control, and the absorbance of the sample from DMSO and M-Lycotoxin treatment was defined as 0 and 100%, respectively.

P. aeruginosa NBRC 13275 = format: cell-based, Pseudomonas aeruginosa; settings: NBRC 13275, 18 h
Description: as §1, §2

[1] = system: multidrug-resistant P. aeruginosa (MDRP); format: cell-based, Pseudomonas aeruginosa; settings: multidrug-resistant (MDRP, 18 h)
Description: as §1, §2

Proteinase K = Proteinase K (Parengyodontium album, UniProt P06873); assay: Digestion assay with proteinase K; format: in vitro ADME; settings: 0.002% (v/v) proteinase K, peptide 1 mM, 37 °C, 24 h; fragments by LC-MS
Description: The chemical stability of 17KKV-Aib (1) was investigated using a digestion assay with proteinase K, which is a widely used representative protease for assessing sensitivity to digestive enzymes. Proteinase K is widely recognized for its ability to cleave peptide bonds on the carboxylic sides of aliphatic, aromatic, or highly hydrophobic amino acids. Peptide 1 was treated with proteinase K for 24 h, and the remaining peptide fragments were evaluated using liquid phase chromatography–mass spectrometry (LC-MS) analysis. […] All the peptides were synthesized using Fmoc-assisted solid-phase methods by Liberty Blue. […]
Each peptide (1 mM) was treated with 0.002% (v/v) Proteinase K, and the mixture was incubated at 37 °C for 2–24 h. […] The residual peptides were assessed by analytical HPLC using an InertSustainSwift C18 column (3 µm, 25 cm × 4.6 mm, solvent A: water containing 0.1% TFA, solvent B: MeCN containing 0.1% TFA, flow rate: 1.0 mL/min, gradient: 10–90% gradient of solvent B over 30 min). The digestion assay was performed in two independent experiments, and the average values from them were calculated. […]
Figure 4 Chemical stability of the peptides 1–8 against proteinase K. Each peptide was incubated with 0.002% (v/v) proteinase K for the indicated times at 37 °C, and the residuals were evaluated by LC-MS. […]

Sequence of Proteinase K (P06873 106-384): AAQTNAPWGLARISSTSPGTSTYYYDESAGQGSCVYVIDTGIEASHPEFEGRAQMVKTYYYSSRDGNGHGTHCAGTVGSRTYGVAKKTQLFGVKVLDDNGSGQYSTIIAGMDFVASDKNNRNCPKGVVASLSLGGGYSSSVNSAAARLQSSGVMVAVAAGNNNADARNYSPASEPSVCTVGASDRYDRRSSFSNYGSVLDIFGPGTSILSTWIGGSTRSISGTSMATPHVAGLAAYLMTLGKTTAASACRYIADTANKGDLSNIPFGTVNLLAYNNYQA

CC[C@H](C)[C@H](NC(=O)CN)C(=O)N[C@@H](CCCCN)C(=O)N[C@@H](CCCCN)C(=O)N[C@@H](Cc1ccccc1)C(=O)N[C@@H](CC(C)C)C(=O)N[C@@H](CCCCN)C(=O)N[C@@H](CO)C(=O)NC(C)(C)C(=O)N[C@@H](CCCCN)C(=O)N[C@@H](CCCCN)C(=O)N[C@@H](Cc1ccccc1)C(=O)N[C@H](C(=O)N[C@@H](CCCCN)C(=O)NC(C)(C)C(=O)N[C@@H](Cc1ccccc1)C(=O)N[C@@H](CCCCN)C(N)=O)C(C)C [Peptide 1] (H-GIKKFLKS[Aib]KKFVK[Aib]FK-NH2)
MIC, S. aureus, Gram(+) (S. aureus NBRC 13276): 12.5 µM (≈ 24.9 µg/mL)
MIC, E. Coli DH5α, Gram(−) (Escherichia coli DH5α): 1.56 µM (≈ 3.11 µg/mL)
Hemolysis (concentration at which hemolytic activity is exhibited) (human red blood cells): 100 µM
MIC, P. aeruginosa, Gram(−) (P. aeruginosa NBRC 13275): 3.125 µM (≈ 6.24 µg/mL)
MIC, MDRP [1]: 6.25 µM (≈ 12.5 µg/mL)
Cleavage site upon proteinase K treatment (Proteinase K): between 5th Phe and 6th Leu and 16th Phe and 17th Lys residues; also recorded: between the fifth Phe and sixth Leu residues
